According to patent US11103489B2, “Drug for preventing or treating inflammatory bowel disease” (NATIONAL UNIVERSITY CORPORATION OKAYAMA UNIVERSITY, priority 2015, dated 2021):
Entries after “also recorded” stand apart in the source; their conditions may differ.

Columns and labels:
DSS colitis model mice [1] = experiment: DSS (2% aqueous solution) colitis model mice, drug efficacy and side effects (3); assay type: in vivo, C57BL/6 mice; conditions: 2% DSS
Description: (§1) 1. Six-week old (body weight: 20 g) male C57BL/6 mice were purchased and acclimated for 5 to 7 days.
(§2) 2. An average weight was mated between groups having 5 to 6 animals.
(§3) 3. A DSS untreated group (normal) had free access to mineral water filtered through a […] membrane filter. A DSS […] group (vehicle and drug group) had free access to mineral water containing 2% dextran sulfate sodium (DSS) filtered through a […] membrane filter for 6 days and then mineral water filtered through a 0.22 μM membrane filter.
(§4) 4. After initiation of free access to DSS-containing water, a body weight was measured every day and then an evaluated drug was orally administered.
(§5) 6. An orally administered solution was prepared by dissolving the drug in ethanol to a final concentration of 1% and suspending the solution in a 0.5% solution of carboxymethylcellulose (CMC).
(§6) 7. The drug was administered for 11 days, and the next day, a mouse was euthanized followed by blood collection and dissection. A large intestine and a spleen were isolated. A large intestine length was measured and photographs of the large intestine and the spleen were taken. A section of the large intestine was taken and photographed.

RXR = conditions: cited from earlier work
DSS colitis model mice [2] = experiment: DSS (2% aqueous solution) colitis model mice, drug efficacy and side effects (1); assay type: in vivo, C57BL/6 mice
Description: as §1, §2, §3, §4, §5, §6
8. The collected blood was heparinized to give plasma, which was used for determining a blood triglyceride (TG).

[3] = Measurement of a blood concentration of a drug after oral administration; assay type: in vivo, ICR mice; conditions: single oral dose of 3 mg/kg; at any time (0, 1, 3, 6 h); plasma
Description: 1. Six-week old male ICR mice (body weight: 15 to 25 g) were fasted from the evening of the day before the experiment, and a compound solution prepared in [2] below at a volume of 10 mL/kg was orally administered via a stomach tube. At 0, 1, 3, and 6 hours after the administration, the animals were anesthetized with ether, and incised the abdomen to collect blood from a large vein. The blood was transferred into a heparinized tube and centrifuged at 5000 rpm for 5 minutes, to collect 100 μL of plasma. Each treated group had five mice.
2. A dose of the compound was 30, 3, 0.3 mg/kg per an animal. A dosage form of the compound was prepared by dissolving it in ethanol to a final concentration of 1% and suspending the solution in a 0.5% solution of carboxymethylcellulose (CMC).
3. To 100 μL of the plasma were added 100 μL of an ammonium acetate buffer (prepared by adding acetic acid to 5 mM of ammonium acetate and adjusting a pH to 5), and then 1 mL of ethyl acetate. The mixture was vortexed for 30 min, allowed to stand at room temperature for 10 min and centrifuged for 30 sec to remove 800 μL of a supernatant, which was then concentrated by a centrifugal evaporator. The residue was stored at −20° C.
4. […] Then, for 20 μL of the sample, a compound concentration was determined by HPLC or LCMS. […]

[4] = Measurement of a drug concentration in feces; assay type: in vivo, ICR mice; conditions: for concentration in feces: oral gavage
Description: 1. For each treated group, four six-week old male ICR mice (body weight: 35 to 40 g) were used.
2. An orally-administered solution was prepared by dissolving it in ethanol to a final concentration of 1% and suspending the solution in a 0.5% solution of carboxymethylcellulose (CMC).
3. Each mouse was housed in a cage and had free access to feed and water.
4. After a body weight was measured at 10 a.m., the animal was gavaged with an evaluated drug via a feeding tube.
5. From the next day, feces in each cage were collected for 3 days.
6. Hundred milligrams of the feces were dried under vacuum at 40° C. and pulverized in a mortar. Then, 1.5 mL of HPLC-grade methanol was added, followed by ultrasonic extraction for 20 min.
7. After the extraction, the mixture was centrifuged at 4° C. and 1,500×g for 20 min.
8. After the centrifugation, 1 mL of the supernatant was filtered through a syringe filter and poured into a 2 mL Eppendorf tube.
9. […] The concentration was converted to a concentration per 100 mg of feces.
10. Since extraction with 1.5 mL of methanol was conducted assuming that 100 mg of the above feces corresponded to 100 μL, a concentration in feces was estimated by multiplying the concentration in methanol determined by LC/MS by […].

[5] = Measurement of a drug concentration in a large intestine; assay type: in vivo, ICR mice; conditions: the next day after 3 day administration
Description: 1. The next day of the last medication (day 3 of medication), a mouse used in Example 2 was euthanized with ether and then a large intestine was excised.
2. Faces were removed from the removed large intestine and the inside of the large intestine was washed with PBS. Excess water was removed with Kimwipes.
3. About 200 mg of the above large intestine was precisely placed in a 2 mL Eppendorf tube.
4. To the Eppendorf tube was added 800 μL of HPLC-grade methanol, and the mixture was pulverized by a homogenizer. Methanol was further added such that the total volume of methanol added became five times as much as the volume of the large intestine.
5. The mixture was ultrasonic-extracted for 20 min.
6. After the extraction, the extract was centrifuged at 4° C. and 1,500×g for 20 min.
7. After the centrifugation, about 1 mL of the supernatant was filtered through a syringe filter and poured into a 2 mL Eppendorf tube.
9. Since extraction with […] of methanol was conducted assuming that 200 mg of the above […] corresponded to 200 μL, a concentration in a large intestine was estimated by multiplying the concentration in methanol determined by LC/MS by 5.

DSS colitis model mice [6] = experiment: DSS (3% aqueous solution) colitis model mice, drug efficacy and side effects (2); assay type: in vivo, C57BL/6 mice; conditions: 3% DSS
Description: as §1, §2
3. A DSS untreated group (normal) had free access to mineral water filtered through a […] membrane filter. […]
as §4, §5, §6

[7] = cited from earlier work
Raw264.7 cells = experiment: Inhibitory effect on LPS-stimulated NO production (Griess assay); conditions: LPS 100 ng/mL; for LPS-stimulated NO production: 48 hours; for NO-production inhibitory effect in combination with RU486 (GR antagonist): combined with 1 μM of RU486
[8] = 2% DSS, oral 100 mg/kg/day, 11 days
[9] = 2% DSS, repeated oral dosing at 10 mg/kg/day, in comparison with bexarotene

SMILES: CCN(c1ccc(C(C)C)c(OCCOC)c1)c1ccc(C(=O)O)cn1 [NEt-3ME]
- effect relative to NEt-3IB (DSS colitis model mice [1]; at a dose three times as much as NEt-3IB (30 vs 10 mg/kg/day)): comparable to NEt-3IB
- weight change (DSS colitis model mice [1]; oral 30 mg/kg/day): inhibited body weight reduction
- RXR receptor activation potency relative to NEt-3IB (RXR): less receptor activation potency than NEt-3IB

SMILES: Nc1ccc(O)c(C(=O)O)c1 [5-Aminosalicylic acid, 5-aminosalicylic acid, reference compound]
- improvement in body weight reduction (DSS colitis model mice [2]; [8]): did not contribute to improvement in body weight reduction
- recovery of a large intestine length (DSS colitis model mice [2]; [8]): did not contribute

SMILES: CCN(c1ccc(C(C)C)c(OCC(C)C)c1)c1ccc(C(=O)O)cn1 [NEt-3IB]
- blood concentration [3]: < 0.1 µM
- increase in the concentration in feces by repeated administration ([4]; 3 day oral administration): increase in the concentration by repeated administration was not found
- concentration in feces ([4]; Day 1): 40 ± 6 µM
- concentration in feces ([4]; Day 2): 33 ± 4 µM
- concentration in feces ([4]; Day 3): 22 ± 1 µM
- concentration in a large intestine [5]: 0.0027 ± 0.0003 µM
- improvement in body weight reduction (DSS colitis model mice [2]; [9]): prominent improvement in body weight reduction
- recovery of a large intestine length (DSS colitis model mice [2]; [9]): recovery of a large intestine length
- blood triglyceride (TG) (DSS colitis model mice [2]; 2% DSS, repeated oral dosing, compared with bexarotene): inhibited increase in blood TG; also recorded: increase in a blood triglyceride by the agent was reduced
- anti-inflammatory effect on DSS enteritis (DSS colitis model mice [2]; repetitive oral administration, 1 mg/kg/day): prominent anti-inflammatory effect
- inhibition of body weight reduction (DSS colitis model mice [6]; oral 10 mg/kg/day): prominent inhibition of body weight reduction
- recovery of a large intestine length (DSS colitis model mice [6]; oral 10 mg/kg/day): recovery of a large intestine length
- weight change (DSS colitis model mice [1]; oral 10 mg/kg/day): inhibited body weight reduction
- absorption in oral administration ([7]; reported): poorly absorbed
- enlarged liver or increase in triglyceride ([7]; reportedly, in contrast to a conventional RXR full agonist): does not cause an enlarged liver or increase in triglyceride
- LPS-stimulated NO production (Raw264.7 cells): inhibited
- NO-production inhibitory effect in combination with RU486 (GR antagonist) (Raw264.7 cells): not inhibited

SMILES: O=C(O)c1cc(/N=N/c2ccc(S(=O)(=O)Nc3ccccn3)cc2)ccc1O [SASP, salazosulfapyridine, reference compound]
- weight change, improvement effect compared with a vehicle (DSS colitis model mice [1]; oral 200 mg×2/kg/day): did not exhibit improvement effect

SMILES: C[C@]12C=CC(=O)C=C1CC[C@@H]1[C@@H]2[C@@H](O)C[C@@]2(C)[C@H]1CC[C@]2(O)C(=O)CO [Prednisolone, prednisolone, reference compound]
- anti-inflammatory effect (DSS colitis model mice [6]; oral administration at 10 mg/kg/day): did not exhibit anti-inflammatory effect
- LPS-stimulated NO production (Raw264.7 cells): inhibited
- NO-production inhibitory effect in combination with RU486 (GR antagonist) (Raw264.7 cells): inhibited by combination use of RU486
